This is an account of results in patent EP4692094A1 (Beijing Konruns Pharmaceutical Co., Ltd., priority 2023, dated 2024).

pIC50: −log10 of the molar value.

The target of the assay is T1, KAT6A (Homo sapiens, UniProt Q92794).
T1 construct: purchased active motife (Active Motif) 81223
T1 sequence (Q92794 whole entry): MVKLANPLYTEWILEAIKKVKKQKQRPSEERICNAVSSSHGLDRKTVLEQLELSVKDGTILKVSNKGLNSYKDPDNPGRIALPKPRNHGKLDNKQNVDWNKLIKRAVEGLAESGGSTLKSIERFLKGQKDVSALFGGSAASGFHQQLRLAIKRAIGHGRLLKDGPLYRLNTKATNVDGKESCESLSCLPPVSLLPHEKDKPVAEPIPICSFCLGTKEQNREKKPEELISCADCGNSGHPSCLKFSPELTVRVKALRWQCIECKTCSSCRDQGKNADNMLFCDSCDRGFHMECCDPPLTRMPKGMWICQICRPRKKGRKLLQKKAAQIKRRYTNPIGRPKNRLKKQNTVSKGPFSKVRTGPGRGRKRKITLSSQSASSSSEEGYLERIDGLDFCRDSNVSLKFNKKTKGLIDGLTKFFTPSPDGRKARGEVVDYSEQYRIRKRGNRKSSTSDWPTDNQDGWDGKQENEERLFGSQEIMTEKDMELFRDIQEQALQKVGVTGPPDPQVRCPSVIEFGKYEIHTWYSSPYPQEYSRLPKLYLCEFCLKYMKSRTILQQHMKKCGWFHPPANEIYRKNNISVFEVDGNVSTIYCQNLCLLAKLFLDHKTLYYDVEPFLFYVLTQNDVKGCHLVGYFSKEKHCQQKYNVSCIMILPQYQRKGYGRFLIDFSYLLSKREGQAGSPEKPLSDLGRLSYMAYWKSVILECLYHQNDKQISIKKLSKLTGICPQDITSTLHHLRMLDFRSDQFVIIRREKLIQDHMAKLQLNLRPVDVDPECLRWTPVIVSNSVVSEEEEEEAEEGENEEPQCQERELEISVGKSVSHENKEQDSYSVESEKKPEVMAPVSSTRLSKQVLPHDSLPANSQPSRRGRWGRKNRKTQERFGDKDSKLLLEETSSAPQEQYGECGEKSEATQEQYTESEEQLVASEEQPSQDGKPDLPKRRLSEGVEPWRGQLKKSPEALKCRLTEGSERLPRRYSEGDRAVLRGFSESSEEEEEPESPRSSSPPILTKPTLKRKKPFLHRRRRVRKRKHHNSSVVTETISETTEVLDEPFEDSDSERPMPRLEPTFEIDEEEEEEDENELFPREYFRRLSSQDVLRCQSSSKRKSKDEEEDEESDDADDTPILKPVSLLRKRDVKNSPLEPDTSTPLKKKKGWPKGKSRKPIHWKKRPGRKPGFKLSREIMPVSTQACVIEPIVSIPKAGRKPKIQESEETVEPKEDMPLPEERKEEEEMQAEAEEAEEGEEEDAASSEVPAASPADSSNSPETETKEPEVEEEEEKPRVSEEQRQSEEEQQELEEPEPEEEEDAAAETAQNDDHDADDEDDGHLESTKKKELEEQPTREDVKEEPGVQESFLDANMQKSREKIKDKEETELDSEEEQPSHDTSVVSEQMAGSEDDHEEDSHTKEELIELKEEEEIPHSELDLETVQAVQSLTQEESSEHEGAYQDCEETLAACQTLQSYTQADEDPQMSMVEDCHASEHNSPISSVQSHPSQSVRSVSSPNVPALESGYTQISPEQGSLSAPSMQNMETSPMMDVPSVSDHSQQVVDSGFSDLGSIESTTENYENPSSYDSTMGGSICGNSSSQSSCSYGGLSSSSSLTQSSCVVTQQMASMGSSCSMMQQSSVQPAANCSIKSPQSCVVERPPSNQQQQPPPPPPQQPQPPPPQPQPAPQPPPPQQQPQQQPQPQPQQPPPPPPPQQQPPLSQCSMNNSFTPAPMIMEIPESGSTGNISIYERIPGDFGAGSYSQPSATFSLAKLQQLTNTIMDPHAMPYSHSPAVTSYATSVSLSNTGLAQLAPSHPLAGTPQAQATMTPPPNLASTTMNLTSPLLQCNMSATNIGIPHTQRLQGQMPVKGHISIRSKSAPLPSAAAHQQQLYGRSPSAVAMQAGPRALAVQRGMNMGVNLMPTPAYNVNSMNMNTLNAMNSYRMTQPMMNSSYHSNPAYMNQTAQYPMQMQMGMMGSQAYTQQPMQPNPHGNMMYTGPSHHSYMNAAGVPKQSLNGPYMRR
Put plainly: Enzymatic activity assay for KAT6A acetyltransferase (TR-FRET, acetylation of histone substrate H3). It counts as biochemical. As for the experimental part:
The acetylation effect of KAT6A on histone substrate H3 was determined using the TR-FRET (time-resolved fluorescence resonance energy transfer) method.
• 1) The compounds prepared in the examples of the present disclosure were each dissolved in dimethylsulfoxide to give solutions at a concentration of 10 mmol/L, and then the solutions were diluted to 0.2 mmol/L, i.e., 1 µL of the compound was added to 49 µL of DMSO, and 3-fold dilution was performed to give 10 concentrations. • 2) 50 nL of the test compounds (example compounds) were transferred to 384 reaction plates using Echo, two replicates for each compound, and the plates were centrifuged at a rotation speed of 1000 rpm for 1 min, the final concentration of dimethylsulfoxide (DMSO) being 0.5%. • 3) 2.5 µL of the reaction mixtures obtained in step 2 was added to the 384 reaction plates in step 2), and the plates were centrifuged at 1000 rpm for 1 min and incubated at 25 °C for 10 min. • 4) 2.5 µL of Bio-H3&AcCOA (acetyl-CoA) reaction solution was added to the 384 reaction plates in step 3), and the plates were centrifuged at a rotation speed of 1000 rpm for 1 min and incubated at 25 °C for 90 min. • 5) 5 µL of Eu-Ab& Ulight-SA detection solution was added to the 384 reaction plates in step 4), and the plates were centrifuged at 1000 rpm for 1 min and incubated at 25 °C for 60 min. • 6) The HTRF […] signals were read using a BMG high-throughput drug-screening multi-mode microplate reader.
The acetylation level of the histone H3 was analyzed by the GraphPad Prism 8 software. The reading of the negative control (0.5% DMSO wells) was set as 0% inhibition rate, and the reading of the positive control (wells with the highest concentration of the control compound) was set as 100% inhibition rate. The inhibition rates were calculated, and then IC50 values (half maximal inhibitory concentration) of test compounds were obtained by using a software nonlinear fitting formula; [formula]
Datapositive control: mean of positive control well values; Datanegative control: mean of negative control well values. Table 3. Enzymatic inhibitory activity of example compounds
A general note: Time-resolved FRET reads energy transfer from a long-lived donor to a nearby acceptor.
In general, pIC50 refers to the negative decadic logarithm of the IC50, by convention in mol/L. A higher pIC50 goes with a small IC50. On to `COc1nc(Cn2cccn2)cc2onc(NS(=O)(=O)c3cccc4c3OCCC4)c12` [Example 7, N-(6-((1H-Pyrazol-1-yl)methyl)-4-methoxyisoxazolo[4,5-c]pyridin-3-yl)-3,4-dihydro-1H-benzopyran-8-sulfonamide], for which the negative logarithm of the IC50 (pIC50) is 8.25.

For `COc1nc(Cn2nccn2)cc2onc(NS(=O)(=O)c3cccc4c3OCC4)c12` [Example 12, N-(6-((2H-1,2,3-Triazol-2-yl)methyl)-4-methoxyisoxazolo[4,5-c]pyridin-3-yl)-2,3-dihydrobenzofuran-7-sulfonamide], the pIC50 was 7.18.

`COc1nc(C(F)(F)n2cccn2)cc2onc(NS(=O)(=O)c3cccc4c3OCC4)c12` [Example 17, N-(6-(Difluoro(1H-pyrazol-1-yl)methyl)-4-methoxyisoxazolo[4,5-c]pyridin-3-yl)-2,3-dihydrobenzofuran-7-sulfonamide] showed a pIC50 of 8.06.

For the molecule `COc1nc(C(F)n2cccn2)cc2onc(NS(=O)(=O)c3cccc4c3OCC4)c12` (centres unmarked) [Example 18, N-(6-(Fluoro(1H-pyrazol-1-yl)methyl)-4-methoxyisoxazolo[4,5-c]pyridin-3-yl)-2,3-dihydrobenzofuran-7-sulfonamide], the pIC50 was 8.14.

Regarding `COc1nc(Cn2nccn2)cc2onc(NS(=O)(=O)c3cccc4c3ccn4C)c12` [Example 21, N-(6-((2H-1,2,3-Triazol-2-yl)methyl)-4-methoxyisoxazolo[4,5-c]pyridin-3-yl)-1-methyl-1H-indole-4-sulfonamide], the pIC50 was 7.12.

For the molecule `COc1nc(Cn2cccn2)cc2onc(NS(=O)(=O)c3cccc4c3CCC4)c12` [Example 26, N-(6-((1H-Pyrazol-1-yl)methyl)-4-methoxyisoxazolo[4,5-c]pyridin-3-yl)-2,3-dihydro-1H-indene-4-sulfonamide], the pIC50 is 7.66.

In turn, `COc1nc(Cn2nccn2)cc2onc(NS(=O)(=O)c3cccc4c3OCCO4)c12` [Example 29, N-(6-((2H-1,2,3-Triazol-2-yl)methyl)-4-methoxyisoxazolo[4,5-c]pyridin-3-yl)-2,3-dihydrobenzo[b][1,4]dioxine-5-sulfonamide] gave a pIC50 of 8.80.

In turn, `COc1nc(Cc2cocn2)cc2onc(NS(=O)(=O)c3cccc4c3OCCO4)c12` [Example 31, N-(4-Methoxy-6-(oxazol-4-ylmethyl)isoxazolo[4,5-c]pyridin-3-yl)-2,3-dihydrobenzo[b][1,4]dioxine-5-sulfonamide] gave a pIC50 of 7.16.

`COc1nc(Cc2ccccn2)cc2onc(NS(=O)(=O)c3cccc4c3OCCO4)c12` [Example 32, N-(4-Methoxy-6-(pyridin-2-ylmethyl)isoxazolo[4,5-c]pyridin-3-yl)-2,3-dihydrobenzo[b][1,4]dioxine-5-sulfonamide]: the pIC50 was 7.46.

`C#Cc1ccc(S(=O)(=O)Nc2noc3cc(Cn4cccn4)nc(OC)c23)c2c1CCO2` [Example 33, N-(6-((1H-Pyrazol-1-yl)methyl)-4-methoxyisoxazolo[4,5-c]pyridin-3-yl)-4-ethynyl-2,3-dihydrobenzofuran-7-sulfonamide] showed a pIC50 of 8.50. Compared with the last molecule, the pIC50 is 1.04 log units higher.

`COc1cc2c(cc1S(=O)(=O)Nc1noc3cc(Cn4nccn4)nc(OC)c13)CCCC2` [Example 34, N-(6-((2H-1,2,3-Triazol-2-yl)methyl)-4-methoxyisoxazolo[4,5-c]pyridin-3-yl)-3-methoxy-5,6,7,8-tetrahydronaphthalene-2-sulfonamide] showed a pIC50 of 7.90.

With `COc1nc(Cn2cccn2)cc2onc(NS(=O)(=O)c3cccc4cccnc34)c12` [Example 46], the pIC50 is 8.78.

`COc1nc(Cn2cccn2)cc2onc(NS(=O)(=O)c3cccc4occc34)c12` [Example 47, N-(6-((1H-Pyrazol-1-yl)methyl)-4-methoxyisoxazolo[4,5-c]pyridin-3-yl)benzofuran-4-sulfonamide] had a pIC50 of 8.33.

With `COc1nc(Cn2cccn2)cc2onc(NS(=O)(=O)c3cccc4nc(C)oc34)c12` [Example 48, N-(6-((1H-Pyrazol-1-yl)methyl)-4-methoxyisoxazolo[4,5-c]pyridin-3-yl)-2-methylbenzo[d]oxazole-7-sulfonamide], the negative logarithm of the IC50 (pIC50) was 7.64.

`COc1nc(Cn2cccn2)cc2onc(NS(=O)(=O)c3cccc4ccn(C)c34)c12` [Example 49, N-(6-((1H-Pyrazol-1-yl)methyl)-4-methoxyisoxazolo[4,5-c]pyridin-3-yl)-1-methyl-1H-indole-7-sulfonamide] had a pIC50 of 7.17.

The molecule `COc1nc(Cn2cccn2)cc2onc(NS(=O)(=O)c3ccc4c(c3)CCCO4)c12` [Example 50, N-(6-((1H-Pyrazol-1-yl)methyl)-4-methoxyisoxazolo[4,5-c]pyridin-3-yl)-3,4-dihydro-1H-benzopyran-6-sulfonamide] gave a pIC50 of 8.06.

Consider `COc1nc(Cn2cccn2)cc2onc(NS(=O)(=O)c3cccc4c3OC(F)(F)O4)c12` [Example 51, N-(6-((1H-Pyrazol-1-yl)methyl)-4-methoxyisoxazolo[4,5-c]pyridin-3-yl)-2,2-difluorobenzodioxole-4-sulfonamide], for which the pIC50 was 7.74. This pIC50 lies 0.32 log units lower than the previous one.

`COc1nc(Cn2cccn2)cc2onc(NS(=O)(=O)c3ccc4oc(C)nc4c3)c12` [Example 52, N-(6-((1H-Pyrazol-1-yl)methyl)-4-methoxyisoxazolo[4,5-c]pyridin-3-yl)-2-methylbenzo[d]oxazole-5-sulfonamide] gave a pIC50 of 7.46.

Take `COc1nc(Cn2cccn2)cc2onc(NS(=O)(=O)c3ccc4occc4c3)c12` [Example 53, N-(6-((1H-Pyrazol-1-yl)methyl)-4-methoxyisoxazolo[4,5-c]pyridin-3-yl)benzofuran-5-sulfonamide]: the pIC50 is 8.34.

The molecule `COc1nc(Cn2cccn2)cc2onc(NS(=O)(=O)c3ccc4c(c3)CN(C)C(=O)O4)c12` [Example 54, N-(6-((1H-Pyrazol-1-yl)methyl)-4-methoxyisoxazolo[4,5-c]pyridin-3-yl)-3-methyl-2-oxo-3,4-dihydro-2H-benzoxazine-6-sulfonamide] gave a pIC50 of 6.96.

`COc1nc(Cn2cccn2)cc2onc(NS(=O)(=O)c3ccc4ncsc4c3)c12` [Example 55, N-(6-((1H-Pyrazol-1-yl)methyl)-4-methoxyisoxazolo[4,5-c]pyridin-3-yl)benzothiazole-6-sulfonamide] showed a pIC50 of 8.06.

In turn, `COc1ccc2ccn(C)c2c1S(=O)(=O)Nc1noc2cc(Cn3cccn3)nc(OC)c12` [Example 56, N-(6-((1H-Pyrazol-1-yl)methyl)-4-methoxyisoxazolo[4,5-c]pyridin-3-yl)-6-methoxy-1-methyl-1H-indole-7-sulfonamide] had a pIC50 of 7.79. This pIC50 lies 0.27 log units lower than the previous one.

The molecule `COc1ccc2c(c1S(=O)(=O)Nc1noc3cc(Cn4cccn4)nc(OC)c13)OCO2` [Example 58, N-(6-((1H-Pyrazol-1-yl)methyl)-4-methoxyisoxazolo[4,5-c]pyridin-3-yl)-5-methoxy-1,3-benzodioxole-4-sulfonamide] had a pIC50 of 9.18.

In turn, `COc1c(Cl)c2c(c(OC)c1S(=O)(=O)Nc1noc3cc(Cn4cccn4)nc(OC)c13)CCC2` [Example 63, N-(6-((1H-Pyrazol-1-yl)methyl)-4-methoxyisoxazolo[4,5-c]pyridin-3-yl)-7-chloro-4,6-dimethoxy-2,3-dihydro-1H-indene-5-sulfonamide] had a pIC50 of 8.22.

In the case of `COc1ccc(S(=O)(=O)Nc2noc3cc(Cn4cccn4)nc(OC)c23)c2occc12` [Example 64, N-(6-((1H-Pyrazol-1-yl)methyl)-4-methoxyisoxazolo[4,5-c]pyridin-3-yl)-4-methoxybenzofuran-7-sulfonamide], the pIC50 was 8.05.

`COc1ccc2cc(C)oc2c1S(=O)(=O)Nc1noc2cc(Cn3cccn3)nc(OC)c12` [Example 65, N-(6-((1H-Pyrazol-1-yl)methyl)-4-methoxyisoxazolo[4,5-c]pyridin-3-yl)-6-methoxy-2-methylbenzofuran-7-sulfonamide] showed a pIC50 of 8.70. This pIC50 is 0.65 log units higher than that of the molecule before.

In turn, `COc1ccc2c(c1S(=O)(=O)Nc1noc3cc(Cn4cccn4)nc(OC)c13)OC(C)C2` (centres unmarked) [Example 66, N-(6-((1H-Pyrazol-1-yl)methyl)-4-methoxyisoxazolo[4,5-c]pyridin-3-yl)-6-methoxy-2-methyl-2,3-dihvdrobenzofuran-7-sulfonamide] showed a pIC50 of 8.91. Against the preceding molecule, the pIC50 is 0.21 log units higher.

In turn, `COc1cc2c(cc1S(=O)(=O)Nc1noc3cc(Cn4cccn4)nc(OC)c13)OCCC2` [Example 67, N-(6-((1H-Pyrazol-1-yl)methyl)-4-methoxyisoxazolo[4,5-c]pyridin-3-yl)-6-methoxy-3,4-dihydro-1H-benzopyran-7-sulfonamide] had a negative logarithm of the IC50 (pIC50) of 8.88.

Consider `COc1ccc2ccoc2c1S(=O)(=O)Nc1noc2cc(Cn3cc(F)cn3)nc(OC)c12` [Example 68, N-(6-((4-Fluoro-1H-pyrazol-1-yl)methyl)-4-methoxyisoxazolo[4,5-c]pyridin-3-yl)-6-methoxvbenzofuran-7-sulfonamide], for which the negative logarithm of the IC50 (pIC50) is 8.62. Compared with the last molecule, the pIC50 is 0.26 log units lower.
